Literature values, collected in patent publication US20090246262A1, “EASILY APPLIED FIELD DRESSING FOR WOUNDS” (Valor Medical, Inc., priority 2008, published 2009).

What was measured:
[1] = in vivo
[2] = upon contact with moist tissues

time to polymerize (remains as a monomer) [2] [s]	Compound	histotoxicity [1]
	C=C(C#N)C(=O)OCC [ethyl]	histotoxic
	C=C(C#N)C(=O)OC [Eastman 910]	histotoxic
30 to 55	C=C(C#N)C(=O)OC [methyl homolog, methyl cyanoacrylate]	histoxicity severely limited its clinical usefulness
